The assay addresses human TrkA (Homo sapiens (Human), UniProt P04629). In words: Human TrkA inhibition assay (Test Example 2). It counts as biochemical. The procedure, abridged:
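Mobility-shift readout of phosphorylated versus unphosphorylated fluorescent peptide gave conversion ratio, normalized to DMSO and no-enzyme wells; IC50 by logistic fit of 10- or 15-point 3-fold dilutions. Conditions: 1 nmol/L enzyme, 15 min compound preincubation, then 500 μmol/L ATP plus 1.5 μmol/L peptide, 120 min, 37 °C.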

[1] abbreviates: human TrkA 1 nmol/L, ATP 500 μmol/L, 120 min at 37° C., read-out: IC50 values (TrkA phosphorylation inhibition).
The mark [2] stands for this setting: Table 154, human TrkA inhibition, read-out: IC50.
The mark [3] stands for this setting: Table 155, human TrkA inhibition, read-out: IC50.

Usually pIC50 stands for the negative decadic logarithm of the IC50, by convention in mol/L.

pIC50: −log10 of the molar value. Read-outs that look alike come from different tables or passages of the source.

Chain of human TrkA (P04629 440-796): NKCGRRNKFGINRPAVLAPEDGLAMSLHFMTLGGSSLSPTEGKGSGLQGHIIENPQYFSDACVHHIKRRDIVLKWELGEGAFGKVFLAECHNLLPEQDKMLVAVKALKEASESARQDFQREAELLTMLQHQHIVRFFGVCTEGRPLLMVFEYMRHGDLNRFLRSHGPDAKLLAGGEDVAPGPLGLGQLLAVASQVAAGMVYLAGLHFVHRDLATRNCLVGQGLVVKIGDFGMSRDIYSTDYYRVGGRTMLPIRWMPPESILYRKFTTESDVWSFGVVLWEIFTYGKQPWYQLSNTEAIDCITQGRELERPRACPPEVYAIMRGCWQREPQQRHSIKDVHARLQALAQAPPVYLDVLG

In the case of `COCCN1C[C@@H](NC(=O)Nc2c(C)c(-c3cnc(C)nc3)nn2-c2ccccc2)[C@H](c2cc(F)nc(F)c2)O1` (racemic) [Compound I-285], the negative-log IC50 (pIC50) under setting [1] was 8.57.

With `COCCN1C[C@@H](NC(=O)Nc2c(C)c(-c3cnc(N4CC(OC(=O)c5ccccc5)C4)nc3)nn2-c2ccccc2)[C@H](c2cc(F)nc(F)c2)O1` (racemic) [Compound I-286], the pIC50 under setting [2] was more than 7.00.

As for `COCCN1C[C@@H](NC(=O)Nc2c(C)c(-c3cnc(C)s3)nn2-c2ccccc2)[C@H](c2ccnc(F)c2)O1` (racemic) [Compound I-287], the negative logarithm of the IC50 (pIC50) under setting [2] was more than 7.00.

Regarding `COCCN1C[C@@H](NC(=O)Nc2c(C)c(-c3cnc4c(c3)CC(=O)N4C)nn2-c2ccccc2)[C@H](c2ccnc(F)c2)O1` (racemic) [Compound I-291], the pIC50 under setting [1] is 8.70.

Regarding `COCCN1C[C@@H](NC(=O)Nc2c(C)c(-n3cnc(C)c3)nn2-c2ccccc2)[C@H](c2cnc(F)c(F)c2)O1` (racemic) [Compound I-297], the negative-log IC50 (pIC50) under setting [2] was more than 7.00.

For `COCCN1C[C@@H](NC(=O)Nc2c(C)c(-c3cnc4[nH]ncc4c3)nn2-c2ccccc2)[C@H](c2ccnc(F)c2)O1` (racemic) [Compound I-299], the negative-log IC50 (pIC50) under setting [1] was 8.68.

Turning to `COCCN1C[C@@H](NC(=O)Nc2c(C)c(-c3cnc(F)nc3)nn2-c2ccccc2)[C@H](c2ccnc(F)c2)O1` (racemic) [Compound I-300], the negative-log IC50 (pIC50) under setting [2] was more than 7.00.

In the case of `COCCN1C[C@@H](NC(=O)Nc2c(C)c(-c3cc(C(N)=O)c(=O)n(C)n3)nn2-c2ccccc2)[C@H](c2ccnc(F)c2)O1` (racemic) [Compound I-301], the negative-log IC50 (pIC50) under setting [2] is more than 7.00.

Turning to `CNC(=O)c1cc(-c2nn(-c3ccccc3)c(NC(=O)N[C@@H]3CN(CCOC)O[C@H]3c3ccnc(F)c3)c2C)nn(C)c1=O` (racemic) [Compound I-302], the pIC50 under setting [1] was 8.09.

In the case of `COCCN1C[C@@H](NC(=O)Nc2c(C)c(-c3cnc4c(c3)CC(=O)N4C)nn2-c2ccccc2)[C@H](c2cnc(F)c(F)c2)O1` (racemic) [Compound I-303], the negative logarithm of the IC50 (pIC50) under setting [1] is 8.82.

In the case of `Cc1c(-c2cnn(C)c2)nn(-c2ccccc2)c1NC(=O)N[C@@H]1CN(CC(F)(F)F)O[C@H]1c1ccc(F)c(F)c1` (racemic) [Compound I-304], the pIC50 under setting [2] was 6.00 to 7.00.

With `Cc1c(-c2cnc3c(cnn3C)c2)nn(-c2ccccc2)c1NC(=O)N[C@@H]1CN(CC(F)(F)F)O[C@H]1c1ccc(F)c(F)c1` (racemic) [Compound I-305], under setting [2], the pIC50 was more than 7.00.

Regarding `COCCN1C[C@@H](NC(=O)Nc2c(C)c(-c3cnc4c(c3)NCCO4)nn2-c2ccccc2)[C@H](c2ccnc(F)c2)O1` (racemic) [Compound I-306], the negative-log IC50 (pIC50) under setting [2] was more than 7.00.

With `COCCN1C[C@@H](NC(=O)Nc2c(C)c(-c3cnc(OC)c(C#N)c3)nn2-c2ccccc2)[C@H](c2ccnc(F)c2)O1` (racemic) [Compound I-307], the pIC50 under setting [2] was more than 7.00.

As to `COCCN1C[C@@H](NC(=O)Nc2c(C)c(-c3cnc(OC)c(C(C)(C)O)c3)nn2-c2ccccc2)[C@H](c2ccnc(F)c2)O1` (racemic) [Compound I-308], the pIC50 under setting [2] is more than 7.00.

Consider `COCCN1C[C@@H](NC(=O)Nc2c(C)c(-c3ccc4nc(C(N)=O)cn4c3)nn2-c2ccccc2)[C@H](c2cnc(F)c(F)c2)O1` (racemic) [Compound I-309], for which the pIC50 under setting [1] was 8.70.

Take `COCCN1C[C@@H](NC(=O)Nc2c(C)c(-c3cnc(C(N)=O)c(F)c3)nn2-c2ccccc2)[C@H](c2cnc(F)c(F)c2)O1` (racemic) [Compound I-311]: under setting [2], the negative logarithm of the IC50 (pIC50) was more than 7.00.

Turning to `CNC(=O)c1ncc(-c2nn(-c3ccccc3)c(NC(=O)N[C@@H]3CN(CCOC)O[C@H]3c3cnc(F)c(F)c3)c2C)cc1F` (racemic) [Compound I-313], under setting [1], the negative logarithm of the IC50 (pIC50) was 8.44.

`COCCN1C[C@@H](NC(=O)Nc2c(C)c(-c3cnc(C(N)=O)c(Cl)c3)nn2-c2ccccc2)[C@H](c2ccnc(F)c2)O1` (racemic) [Compound I-316]: under setting [2], the pIC50 was more than 7.00.

Turning to `COCCN1C[C@@H](NC(=O)Nc2c(C)c(-c3cnc(C(N)=O)c(OC)c3)nn2-c2ccccc2)[C@H](c2ccnc(F)c2)O1` (racemic) [Compound I-317], the pIC50 under setting [2] was more than 7.00.

Take `COCCN1C[C@@H](NC(=O)Nc2c(C)c(-c3cnc(OC)c(C(=O)NOCC(C)(C)O)c3)nn2-c2ccccc2)[C@H](c2cnc(F)c(F)c2)O1` (racemic) [Compound I-318]: the negative logarithm of the IC50 (pIC50) under setting [2] is more than 7.00.

Regarding `COCCN1C[C@@H](NC(=O)Nc2c(C)c(-c3cnc4c(c3)ncn4C)nn2-c2ccccc2)[C@H](c2cc(F)nc(F)c2)O1` (racemic) [Compound I-320], the negative logarithm of the IC50 (pIC50) under setting [3] is more than 7.00.

For `COCCN1C[C@@H](NC(=O)Nc2c(C)c(-c3cnc(N4CC(O)C4)nc3)nn2-c2ccccc2)[C@H](c2cc(F)nc(F)c2)O1` (racemic) [Compound I-321], the negative-log IC50 (pIC50) under setting [3] was more than 7.00.

`COCCN1C[C@@H](NC(=O)Nc2c(C)c(-c3ccc(OC)nc3)nn2-c2ccccc2)[C@H](c2ccnc(F)c2)O1` (racemic) [Compound I-323]: the negative-log IC50 (pIC50) under setting [3] is more than 7.00.

On to `COCCN1C[C@@H](NC(=O)Nc2c(C)c(-c3cnc(N4CCOCC4)nc3)nn2-c2ccccc2)[C@H](c2ccnc(F)c2)O1` (racemic) [Compound I-324], for which the pIC50 under setting [3] is more than 7.00.

Regarding `COCCN1C[C@@H](NC(=O)Nc2c(C)c(-c3cnc4c(c3)N3C(=O)OCC3CO4)nn2-c2ccccc2)[C@H](c2ccnc(F)c2)O1` (mixture of isomers) [Compound I-326], the pIC50 under setting [3] is more than 7.00.

Consider `COCCN1C[C@@H](NC(=O)Nc2c(C)c(-c3ccc(C)nc3)nn2-c2ccccc2)[C@H](c2ccnc(F)c2)O1` (racemic) [Compound I-327], for which, under setting [3], the negative-log IC50 (pIC50) is more than 7.00.

Regarding `COCCN1C[C@@H](NC(=O)Nc2c(C)c(-c3cnc(OC(F)F)nc3)nn2-c2ccccc2)[C@H](c2ccnc(F)c2)O1` (racemic) [Compound I-328], under setting [3], the negative logarithm of the IC50 (pIC50) was more than 7.00.

Turning to `COCCN1C[C@@H](NC(=O)Nc2c(C)c(-c3cnc4nn(C(F)F)cc4c3)nn2-c2ccccc2)[C@H](c2ccnc(F)c2)O1` (racemic) [Compound I-331], the pIC50 under setting [3] is more than 7.00.

On to `COCCN1C[C@@H](NC(=O)Nc2c(C)c(N3CC(c4ccc(F)cc4)C3)nn2-c2ccccc2)[C@H](c2ccnc(F)c2)O1` (racemic) [Compound I-335], for which the negative logarithm of the IC50 (pIC50) under setting [3] was more than 7.00.

As for `COCCN1C[C@@H](NC(=O)Nc2c(C)c(N3CC(c4ccc(F)cc4)C3)nn2-c2ccccc2)[C@H](c2cnc(F)c(F)c2)O1` (racemic) [Compound I-336], the negative-log IC50 (pIC50) under setting [3] was more than 7.00.

On to `COCCN1C[C@@H](NC(=O)Nc2c(C)c(-c3cnc4c(c3)OCC(=O)N4)nn2-c2ccccc2)[C@H](c2cnc(F)c(F)c2)O1` (racemic) [Compound I-337], for which, under setting [3], the negative logarithm of the IC50 (pIC50) is more than 7.00.

For `COCCN1C[C@@H](NC(=O)Nc2c(C)c(-c3cnc4c(c3)N(C)C(CO)CO4)nn2-c2ccccc2)[C@H](c2ccnc(F)c2)O1` (mixture of isomers) [Compound I-338], the pIC50 under setting [3] was more than 7.00.

For `COCCN1C[C@@H](NC(=O)Nc2c(C)c(-c3cnc(C(=O)NC4CC4)c(OC)c3)nn2-c2ccccc2)[C@H](c2ccnc(F)c2)O1` (racemic) [Compound I-339], under setting [3], the pIC50 is more than 7.00.

Consider `COCCN1C[C@@H](NC(=O)Nc2c(C)c(-c3cnc4c(c3)N(C)CCO4)nn2-c2ccccc2)[C@H](c2ccnc(F)c2)O1` (racemic) [Compound I-340], for which the pIC50 under setting [3] is more than 7.00.

Regarding `COCCN1C[C@@H](NC(=O)Nc2c(C)c(-c3cnc4c(c3)N(C(C)=O)CCO4)nn2-c2ccccc2)[C@H](c2ccnc(F)c2)O1` (racemic) [Compound I-341], under setting [3], the negative-log IC50 (pIC50) is more than 7.00.

As for `COCCN1C[C@@H](NC(=O)Nc2c(C)c(-c3cnc4c(c3)CN(C)C4=O)nn2-c2ccccc2)[C@H](c2ccnc(F)c2)O1` (racemic) [Compound I-343], the negative-log IC50 (pIC50) under setting [3] was more than 7.00.

Take `COCCN1C[C@@H](NC(=O)Nc2c(C)c(-n3cnc(C)c3)nn2-c2ccccc2)[C@H](c2ccnc(F)c2)O1` (racemic) [Compound I-346]: under setting [3], the pIC50 was more than 7.00.

Take `COCCN1C[C@@H](NC(=O)Nc2c(C)c(-c3ccc4nc(CO)cn4c3)nn2-c2ccccc2)[C@H](c2ccnc(F)c2)O1` (racemic) [Compound I-347]: the pIC50 under setting [3] was more than 7.00.

Consider `COCCN1C[C@@H](NC(=O)Nc2c(C)c(-c3cc(C)c4nccn4c3)nn2-c2ccccc2)[C@H](c2ccnc(F)c2)O1` (racemic) [Compound I-348], for which, under setting [3], the pIC50 is more than 7.00.

As to `COCCN1C[C@@H](NC(=O)Nc2c(C)c(-c3ccc(C)nc3F)nn2-c2ccccc2)[C@H](c2ccnc(F)c2)O1` (racemic) [Compound I-350], the pIC50 under setting [3] is more than 7.00.

`COCCN1C[C@@H](NC(=O)Nc2c(C)c(-c3cnc4c(c3)CCN4)nn2-c2ccccc2)[C@H](c2ccnc(F)c2)O1` (racemic) [Compound I-351]: under setting [3], the negative logarithm of the IC50 (pIC50) was more than 7.00.

Take `COCCN1C[C@@H](NC(=O)Nc2c(C)c(-c3cnc(OC)cn3)nn2-c2ccccc2)[C@H](c2ccnc(F)c2)O1` (racemic) [Compound I-352]: the negative-log IC50 (pIC50) under setting [3] is more than 7.00.

For the compound `CCC(O)(CC)c1cc(-c2nn(-c3ccccc3)c(NC(=O)N[C@@H]3CN(CCOC)O[C@H]3c3ccnc(F)c3)c2C)cnc1OC` (racemic) [Compound I-354], under setting [3], the pIC50 was more than 7.00.

Regarding `COCCN1C[C@@H](NC(=O)Nc2c(C)c(-c3cnc(OC)c(C4(O)CC4)c3)nn2-c2ccccc2)[C@H](c2ccnc(F)c2)O1` (racemic) [Compound I-355], under setting [3], the pIC50 is more than 7.00.

As for `COCCN1C[C@@H](NC(=O)Nc2c(C)c(-c3cnc4c(c3)NCC(=O)N4)nn2-c2ccccc2)[C@H](c2ccnc(F)c2)O1` (racemic) [Compound I-356], under setting [1], the pIC50 was 8.82.

With `COCCN1C[C@@H](NC(=O)Nc2c(C)c(-c3cnc4c(c3)NC(=O)CN4)nn2-c2ccccc2)[C@H](c2ccnc(F)c2)O1` (racemic) [Compound I-357], the pIC50 under setting [3] was more than 7.00.

Turning to `COCCN1C[C@@H](NC(=O)Nc2c(C)c(-c3cnc(C4(O)COC4)nc3)nn2-c2ccccc2)[C@H](c2ccnc(F)c2)O1` (racemic) [Compound I-360], the negative logarithm of the IC50 (pIC50) under setting [3] was more than 7.00.
